Test results from US7820714B2, “Siglec inhibitors” (priority 2001, dated 2010).
Like-named read-outs stand apart in the source and are kept apart here.

Legend:
[1] = biological target: Siglec-1 (sialoadhesin) (Mus musculus, UniProt Q62230); assay: Hapten inhibition assay, Siglec-1 (sialoadhesin); format: binding; conditions: for Siglec-1 (sialoadhesin) rIP: quotient IC50 reference compound / IC50 compound; for Siglec-1 (sialoadhesin) percentage in parentheses below the IC50 bound: at the concentration of the IC50 bound, meaning not defined in the patent
Siglec-1 (sialoadhesin), sequence (Q62230 20-136 limits assumed): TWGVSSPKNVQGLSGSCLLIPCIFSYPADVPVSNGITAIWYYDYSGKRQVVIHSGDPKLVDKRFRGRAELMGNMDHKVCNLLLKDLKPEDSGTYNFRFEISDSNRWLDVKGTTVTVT
Procedure: (§1) Preferably, the inhibition can be determined by a Hapten inhibition test. […] After overnight incubation at 4° C. the unbound complexes are removed by washing the cells and the bound radioactivity is determined. From the data obtained in this way, the concentrations are found which lead to 50% inhibition of the binding (IC50 values) (5, 6). Specially preferred during the Hapten inhibition test was 10 μl of the complex solution with an activity of 10^3 Bq ^125I mixed with the same volume of a solution of the substance to be investigated (concentrated three times) and incubated at 4° C. for one hour. Then followed the addition of 10 μl of a suspension of target cells, preferably 0.25 to 0.5% of human erythrocytes and incubation overnight at 4° C. The unbound radioactivity is removed by washing the cells five times with 200 μl of washing buffer, preferably phosphate-buffered saline with 0.1% (W/V) bovine serum albumin, and the cell-bound activity is determined with a γ-counter. […] The inhibition is determined in that the value without inhibitor is set to 0% and that with the sialidase-treated cells is set equal to 100%.
(§2) The IC50 value is the siglec inhibitor concentration which leads to 50% inhibition in the binding in the Hapten inhibition assay.

[2] = biological target: T1, Siglec-4a (MAG) (UniProt P20917); assay: Hapten inhibition assay, Siglec-4a (MAG); conditions: for Siglec-4a (MAG) rIP: quotient IC50 reference compound / IC50 compound; for IC50: read-out: Siglec-4a (MAG) IC50; for Siglec-4a (MAG) percentage in parentheses below the IC50 bound: at the concentration of the IC50 bound, meaning not defined in the patent
T1 sequence (P20917 1-627): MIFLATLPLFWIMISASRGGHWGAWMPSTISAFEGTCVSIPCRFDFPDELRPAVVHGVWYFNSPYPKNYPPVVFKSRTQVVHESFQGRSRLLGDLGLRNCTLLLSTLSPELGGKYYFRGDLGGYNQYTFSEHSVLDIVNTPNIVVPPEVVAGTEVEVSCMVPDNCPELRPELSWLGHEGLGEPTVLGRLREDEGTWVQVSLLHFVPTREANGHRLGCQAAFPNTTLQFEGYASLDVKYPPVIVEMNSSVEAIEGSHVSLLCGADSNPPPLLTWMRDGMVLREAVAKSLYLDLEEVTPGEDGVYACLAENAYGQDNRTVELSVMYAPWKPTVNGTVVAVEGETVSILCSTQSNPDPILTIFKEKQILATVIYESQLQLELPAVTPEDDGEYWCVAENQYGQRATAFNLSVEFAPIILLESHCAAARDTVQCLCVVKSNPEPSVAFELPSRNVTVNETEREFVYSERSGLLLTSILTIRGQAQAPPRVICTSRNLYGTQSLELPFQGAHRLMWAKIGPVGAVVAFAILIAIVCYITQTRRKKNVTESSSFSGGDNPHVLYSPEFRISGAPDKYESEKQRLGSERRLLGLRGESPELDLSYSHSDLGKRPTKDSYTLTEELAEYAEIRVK
Procedure: Preferably, the inhibition can be determined by a Hapten inhibition test. […] After overnight incubation at 4° C. the unbound complexes are removed by washing the cells and the bound radioactivity is determined. […] Then followed the addition of 10 μl of a suspension of target cells, preferably 0.25 to 0.5% of human erythrocytes and incubation overnight at 4° C. The unbound radioactivity is removed by washing the cells five times with 200 μl of washing buffer, preferably phosphate-buffered saline with 0.1% (W/V) bovine serum albumin, and the cell-bound activity is determined with a γ-counter. […] The inhibition is determined in that the value without inhibitor is set to 0% and that with the sialidase-treated cells is set equal to 100%.

[3] = biological target: T2, Siglec-2 (human CD22) (Homo sapiens, UniProt P20273); assay: Hapten inhibition assay, Siglec-2 (human CD22); format: binding; conditions: for Siglec-2 (human CD22) rIP: quotient IC50 reference compound / IC50 compound; for IC50: unit inferred
T2 sequence (P20273 20-138 limits assumed): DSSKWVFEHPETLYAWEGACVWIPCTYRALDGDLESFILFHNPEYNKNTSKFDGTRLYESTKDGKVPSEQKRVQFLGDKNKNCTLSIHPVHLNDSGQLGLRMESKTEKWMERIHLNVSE
Procedure: as §1, §2

[4] = biological target: T3, Siglec-2 (murine CD22) (Mus musculus, UniProt P35329); assay: Hapten inhibition assay, Siglec-2 (murine CD22); format: binding; conditions: for Siglec-2 (murine CD22) rIP: quotient IC50 reference compound / IC50 compound; for IC50: unit inferred
T3 sequence (P35329 22-148 limits assumed): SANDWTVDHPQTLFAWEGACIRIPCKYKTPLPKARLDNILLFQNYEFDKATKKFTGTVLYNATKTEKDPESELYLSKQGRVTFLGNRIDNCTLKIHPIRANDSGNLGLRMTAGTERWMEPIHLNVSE
Procedure: as §1, §2

Compound	Siglec-1 (sialoadhesin) rIP [1]	IC50 ([1]; unit inferred) [mM]	Siglec-4a (MAG) rIP [2]	IC50 ([2]; unit inferred) [mM]	Siglec-1 (sialoadhesin) percentage in parentheses below the IC50 bound [1]	IC50 ([1]; bounds given in mM) [mM]	Siglec-4a (MAG) percentage in parentheses below the IC50 bound [2]	IC50 ([2]; bounds given in mM) [mM]	Siglec-2 (human CD22) rIP [3]	IC50 [3] [µM]	Siglec-2 (murine CD22) rIP [4]	IC50 [4] [µM]
CC(=O)N[C@H]1[C@H]([C@H](O)[C@H](O)CO)O[C@@](O[C@H]2[C@@H](O)[C@@H](CO)O[C@@H](O[C@H]3[C@H](O)[C@@H](O)C(O)O[C@@H]3CO)[C@@H]2O)(C(=O)O)C[C@@H]1O (stereo partly shown) [2,3-sialyllactose, reference compound]	2.4	0.385	7.3	1.6								
O=C(NC1C(O)CC(OCc2ccccc2)(C(=O)O)OC1C(O)C(O)CO)c1ccccc1 (stereo not drawn) [Benzyl-α-5-N-benzoyl-neuraminic acid]	<0.05		>0.27		(63%)	> 10	(27%)	< 10				
CCCC(=O)N[C@H]1[C@H]([C@H](O)[C@H](O)CO)O[C@@](OCc2ccccc2)(C(=O)O)C[C@@H]1O [Benzyl-α-5-N-butanoyl-neuraminic acid]	2.7	0.25	1.5	5.3								
CCC(=O)NC1C(O)CC(OCc2ccccc2)(C(=O)O)OC1C(O)C(O)CO (stereo not drawn) [Benzyl-α-5-N-propanoyl-neuraminic acid]	3.4	0.215	4.8	2.5								
CC(=O)N[C@H]1[C@H]([C@H](O)[C@H](O)CO)O[C@@](SCc2ccccc2)(C(=O)O)C[C@@H]1O [Benzylthio-α-Neu5Ac]	4.1	0.28	3.0	2								
CO[C@]1(C(=O)O)C[C@H](O)[C@@H](NC(=O)CO)[C@H]([C@H](O)[C@H](O)CO)O1 [Methyl-α-5-N-glycolyl-neuraminic acid]									1.0	1010	8.3	703
CO[C@]1(C(=O)O)C[C@H](O)[C@@H](NC(C)=O)[C@H]([C@H](O)[C@H](O)CNC(=O)C(CNC(C)=O)NC(C)=O)O1 (stereo partly drawn) [Methyl-α-9-N-(2,3-diacetylaminopropanoyl)-amino-9-desoxy-Neu5Ac]	<<0.1		2.3	2.5	(80%)	> 10						
CO[C@]1(C(=O)O)C[C@H](O)[C@@H](NC(C)=O)[C@H]([C@H](O)[C@H](O)CNC(=O)c2ccccc2-c2ccccc2)O1 [Methyl-α-9-N-(biphenyl-2-carbonyl)-amino-9-desoxy-Neu5Ac]	0.3	2.6							10	97	9.5	647
CO[C@]1(C(=O)O)C[C@H](O)[C@@H](NC(C)=O)[C@H]([C@H](O)[C@H](O)CNC(=O)Cc2ccc(-c3ccccc3)cc2)O1 [Methyl-α-9-N-(biphenyl-4-acetyl)-amino-9-desoxy-Neu5Ac]	0.3	3							29	35	48	123
CCOc1c(NC[C@@H](O)[C@@H](O)[C@@H]2O[C@@](OC)(C(=O)O)C[C@H](O)[C@H]2NC(C)=O)c(=O)c1=O [Methyl-α-9-N-(ethoxycyclobutendion)-amino-9-desoxy-Neu5Ac]	0.2	1.33	32	0.24								
COC1(C(=O)O)CC(O)C(NC(C)=O)C(C(O)C(O)CNC(=O)CNC(=O)CN)O1 (stereo not drawn) [Methyl-α-9-N-(gly)2-amino-9-desoxy-Neu5Ac]	<<0.1		0.9	5	(100%)	> 10						
COC1(C(=O)O)CC(O)C(NC(C)=O)C(C(O)C(O)CNC(=O)CNC(=O)CNC(=O)CN)O1 (stereo not drawn) [Methyl-α-9-N-(gly)3-amino-9-desoxy-Neu5Ac]	>>0.05		<<0.27		(11%)	< 10	(88%)	> 10				
COC1(C(=O)O)CC(O)C(NC(C)=O)C(C(O)C(O)CNC(=O)Cc2ccccc2)O1 (stereo not drawn) [Methyl-α-9-N-(phenylacetyl)-amino-9-desoxy-Neu5Ac]			7	0.367								
COC(=O)C1(OC)CC(O)C(NC(=O)CF)C(C(O)C(O)CO)O1 (stereo not drawn) [Methyl-α-methyl-α-5-N-fluoracetyl-neuraminic acid]	1.9	0.625	17.1	0.28								
Methyl-α-9-N-(cyclobutendion)-amino-9-desoxy-Neu5Ac									5.7	180	7.4	620

More lines, now with the values ahead:

Siglec-1 (sialoadhesin) rIP [1]	IC50 ([1]; unit inferred) [mM]	Siglec-4a (MAG) rIP [2]	IC50 ([2]; unit inferred) [mM]	Siglec-1 (sialoadhesin) percentage in parentheses below the IC50 bound [1]	IC50 ([1]; bounds given in mM) [mM]	Siglec-4a (MAG) percentage in parentheses below the IC50 bound [2]	IC50 ([2]; bounds given in mM) [mM]	Siglec-2 (human CD22) rIP [3]	IC50 [3] [µM]	Siglec-2 (murine CD22) rIP [4]	IC50 [4] [µM]	Compound
<0.05		6.2	1.01	(62%)	> 10							COC1(C(=O)O)CC(O)C(NC(C)=O)C(C(O)C(O)CNC(=O)CC(C)=O)O1 (stereo not drawn) [Methyl-α-9-N-acetoacetyl-amino-9-desoxy-Neu5Ac]
0.3	7.48	3.3	3.4									CO[C@]1(C(=O)O)C[C@H](O)[C@@H](NC(C)=O)[C@H]([C@H](O)[C@H](O)CNC(=O)CN)O1 [Methyl-α-9-N-aminoacetyl-9-desoxy-Neu5Ac]
2.6	0.26	19	0.317									COC1(C(=O)O)CC(O)C(NC(C)=O)C(C(O)C(O)CNS(=O)(=O)c2cccc3c(N(C)C)cccc23)O1 (stereo not drawn) [Methyl-α-9-N-dansyl-amino-9-desoxy-Neu5Ac]
0.7	1.46	54	0.198									CCCCCC(=O)NCC(O)C(O)C1OC(OC)(C(=O)O)CC(O)C1NC(C)=O (stereo not drawn) [Methyl-α-9-N-hexanoyl-amino-9-desoxy-Neu5Ac]
<0.2	> 4			(57%)								COC1(C(=O)O)CC(O)C(NC(C)=O)C(C(O)C(O)CNC(=O)C(N)=O)O1 (stereo not drawn) [Methyl-α-9-N-oxamido-amino-9-desoxy-Neu5Ac]
0.3	6	6.5	0.733									CO[C@]1(C(=O)O)C[C@H](O)[C@@H](NC(C)=O)[C@H]([C@H](O)[C@H](O)CNC(C)=S)O1 [Methyl-α-9-N-thioacetyl-amino-9-desoxy-Neu5Ac]
0.5	4	10	0.55									COC1(C(=O)O)CC(O)C(NC(C)=O)C(C(O)C(O)CNC(=O)C(F)(F)F)O1 (stereo not drawn) [Methyl-α-9-N-trifluoracetyl-amino-9-desoxy-Neu5Ac]
<0.2	> 4	<<2.4	> 1	(63%)		(87%)						COC1(C(=O)O)CC(O)C(NC(C)=O)C(C(O)C(O)C(=O)O)O1 (stereo not drawn) [Methyl-α-9-carboxy-Neu5Ac]
<<0.05	2	0.1	3.4									CO[C@]1(C(=O)O)C[C@H](O)[C@@H](NC(C)=O)[C@H]([C@H](O)[C@H](O)CS(C)(=O)=O)O1 [Methyl-α-9-methylsulphonyl-9-desoxy-Neu5Ac]
<0.05	2	8.5	0.697									CO[C@]1(C(=O)O)C[C@H](O)[C@@H](NC(C)=O)[C@H]([C@H](O)[C@H](O)C[S+](C)[O-])O1 (stereo partly drawn) [Methyl-α-9-methylsulphoxido-9-desoxy-Neu5Ac]
<<0.05		<<0.27				(116%)	> 10					COC1(C(=O)O)CC(O)C(NC(C)=O)C(C(O)C(O)CSC)O1 (stereo not drawn) [Methyl-α-9-methylthio-9-desoxy-Neu5Ac]
0.4	2.5					(90%)	> 10					Methyl-α-methyl-α-5-N-fluoracetylaminoacetyl-neuraminic acid
